Test results: ChEMBL document CHEMBL5550122, “Photodynamic anticancer activity evaluation of novel 5-aminolevulinic acid and 3-hydroxypyridinone conjugates” (Bioorg Med Chem, 2024)
Calls of active or inactive are those of the source.

What was measured:
Assay type in all cases: functional, cell-based
A-375 [1] = assay: Cytotoxicity against human A-375 cells assessed as reduction in cell viability at 100 to 400 uM incubated for 4 hrs under dark condition by MTT assay; settings: dose 100-400 µM
A-375 [2] = assay: Cytotoxicity against human A-375 cells assessed as reduction in cell viability at 100 to 400 uM preincubated for 4 hrs under dark condition followed by irradiation with blue light at 5 J.cm^-2 energy level and measured after 18 hrs by MTT assay; settings: dose 100-400 µM, time 22.0 hrs
MCF7 [3] = assay: Cytotoxicity against human MCF7 cells assessed as reduction in cell viability at 100 to 400 uM preincubated for 4 hrs under dark condition followed by irradiation with blue light at 5 J.cm^-2 energy level and measured after 18 hrs by MTT assay; settings: dose 100-400 µM, time 22.0 hrs
MCF7 [4] = assay: Cytotoxicity against human MCF7 cells assessed as reduction in cell viability at 100 to 400 uM incubated for 4 hrs under dark condition by MTT assay; settings: dose 100-400 µM
HeLa [5] = assay: Cytotoxicity against human HeLa cells assessed as reduction in cell viability at 100 to 400 uM preincubated for 4 hrs under dark condition followed by irradiation with blue light at 5 J.cm^-2 energy level and measured after 18 hrs by MTT assay; settings: dose 100-400 µM, time 22.0 hrs
HeLa [6] = assay: Cytotoxicity against human HeLa cells assessed as reduction in cell viability at 100 to 400 uM incubated for 4 hrs under dark condition by MTT assay; settings: dose 100-400 µM

Measured: Activity

COC(=O)CCC(=O)CNC(=O)CCCCn1cc(O)c(=O)cc1C
inactive: A-375 [1] | A-375 [2] | MCF7 [3] | MCF7 [4] | HeLa [5] | HeLa [6]

COC(=O)CCC(=O)CNC(=O)[C@H](CC(C)C)NC(=O)Cn1cc(O)c(=O)cc1C
inactive: A-375 [1] | A-375 [2] | MCF7 [3] | MCF7 [4] | HeLa [5] | HeLa [6]

COC(=O)CCC(=O)CNC(=O)[C@H](CC(C)C)NC(=O)Cn1ccc(=O)c(O)c1C
inactive: A-375 [1] | A-375 [2] | MCF7 [3] | MCF7 [4] | HeLa [5] | HeLa [6]

COC(=O)CCC(=O)CNC(=O)[C@H](Cc1ccccc1)NC(=O)Cn1cc(O)c(=O)cc1C
inactive: A-375 [1] | A-375 [2] | MCF7 [3] | MCF7 [4] | HeLa [5] | HeLa [6]

COC(=O)CCC(=O)CNC(=O)Cn1cc(O)c(=O)cc1CO
inactive: A-375 [1] | A-375 [2] | MCF7 [3] | MCF7 [4] | HeLa [5] | HeLa [6]

COC(=O)CCC(=O)CNC(=O)Cn1cc(O)c(=O)cc1C
inactive: A-375 [1] | A-375 [2] | MCF7 [3] | MCF7 [4] | HeLa [5] | HeLa [6]

COC(=O)CCC(=O)CNC(=O)CCCCn1cc(O)c(=O)cc1CO
inactive: A-375 [1] | A-375 [2] | MCF7 [3] | MCF7 [4] | HeLa [5] | HeLa [6]

COC(=O)CCC(=O)CNC(=O)CCCCCn1cc(O)c(=O)cc1C
inactive: A-375 [1] | A-375 [2] | MCF7 [3] | MCF7 [4] | HeLa [5] | HeLa [6]

COC(=O)CCC(=O)CNC(=O)CCn1cc(O)c(=O)cc1C
inactive: A-375 [1] | A-375 [2] | MCF7 [3] | MCF7 [4] | HeLa [5] | HeLa [6]

COC(=O)CCC(=O)CNC(=O)CCn1cc(O)c(=O)cc1CO
inactive: A-375 [1] | A-375 [2] | MCF7 [3] | MCF7 [4] | HeLa [5] | HeLa [6]

COC(=O)CCC(=O)CNC(=O)CCCn1cc(O)c(=O)cc1C
inactive: A-375 [1] | A-375 [2] | MCF7 [3] | MCF7 [4] | HeLa [5] | HeLa [6]

COC(=O)CCC(=O)CNC(=O)[C@H](Cc1ccccc1)NC(=O)Cn1ccc(=O)c(O)c1C
inactive: A-375 [1] | A-375 [2] | MCF7 [3] | MCF7 [4] | HeLa [5] | HeLa [6]

COC(=O)CCC(=O)CNC(=O)[C@H](Cc1ccccc1)NC(=O)CCCCCn1cc(O)c(=O)cc1C
inactive: A-375 [1] | A-375 [2] | MCF7 [3] | MCF7 [4] | HeLa [5] | HeLa [6]

COC(=O)CCC(=O)CNC(=O)CCCCCn1cc(O)c(=O)cc1CO
inactive: A-375 [1] | A-375 [2] | MCF7 [3] | MCF7 [4] | HeLa [5] | HeLa [6]

COC(=O)CCC(=O)CNC(=O)CCCn1cc(O)c(=O)cc1CO
inactive: A-375 [1] | A-375 [2] | MCF7 [3] | MCF7 [4] | HeLa [5] | HeLa [6]
